ChEMBL document CHEMBL4725309, “Potent, non-covalent reversible BTK inhibitors with 8-amino-imidazo[1,5-a]pyrazine core featuring 3-position bicyclic ring substitutes” (Bioorg Med Chem Lett, 2020)
Values belong to the molecule of their own block, whether it stands above or below them.

How the values were obtained:
[1] = target: T1, Tyrosine-protein kinase BTK (Homo sapiens, UniProt Q06187); assay: Inhibition of BTK in human whole blood assessed as reduction in cell surface CD69 expression preincubated for 1 hr followed by stimulation with anti-CD79b for 3 hrs by immunostaining analysis; type: tissue-based
T1 sequence (Q06187 whole entry): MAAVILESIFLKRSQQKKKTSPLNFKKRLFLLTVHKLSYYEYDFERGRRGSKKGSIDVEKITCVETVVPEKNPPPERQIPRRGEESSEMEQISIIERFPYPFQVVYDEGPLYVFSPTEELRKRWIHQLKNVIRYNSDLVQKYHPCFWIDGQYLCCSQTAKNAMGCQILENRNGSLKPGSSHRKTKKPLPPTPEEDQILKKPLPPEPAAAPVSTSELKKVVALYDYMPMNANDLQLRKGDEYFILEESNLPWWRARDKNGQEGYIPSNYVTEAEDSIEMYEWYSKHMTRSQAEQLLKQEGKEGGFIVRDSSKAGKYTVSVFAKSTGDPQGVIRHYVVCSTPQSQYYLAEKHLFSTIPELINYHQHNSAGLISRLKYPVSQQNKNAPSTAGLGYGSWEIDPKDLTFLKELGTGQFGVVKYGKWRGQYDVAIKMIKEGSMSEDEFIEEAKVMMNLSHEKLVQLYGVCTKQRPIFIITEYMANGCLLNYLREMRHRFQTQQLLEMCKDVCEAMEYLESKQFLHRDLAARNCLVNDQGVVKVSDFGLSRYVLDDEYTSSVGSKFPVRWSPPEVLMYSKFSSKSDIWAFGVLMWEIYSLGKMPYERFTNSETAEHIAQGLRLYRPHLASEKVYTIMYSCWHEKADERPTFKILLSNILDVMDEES

[2] = target: T1, Tyrosine-protein kinase BTK; assay: Inhibition of BTK in human PBMC assessed as reduction in cell surface CD69 expression preincubated for 1 hr followed by stimulation with goat anti-human IgM F(ab')2 for 18 hrs by immunostaining analysis; type: tissue-based
[3] = Half life in Beagle dog at 1 mg/kg, iv; type: ADME, organism-based, Canis lupus familiaris; conditions: in vivo
[4] = Volume of distribution at steady state in Wistar Han rat at 2 mg/kg, iv; type: ADME, organism-based; conditions: in vivo, read-out: Vdss
[5] = Volume of distribution at steady state in Beagle dog at 1 mg/kg, iv; type: ADME, organism-based, Canis lupus familiaris; conditions: in vivo, read-out: Vdss
[6] = AUC in Beagle dog at 1 mg/kg, iv; type: ADME, organism-based, Canis lupus familiaris; set-up: dose 1 mg/kg; conditions: in vivo
[7] = target: T2, Tyrosine-protein kinase Tec (Homo sapiens, UniProt P42680); assay: Inhibition of TEC (unknown origin)
T2 sequence (P42680 whole entry): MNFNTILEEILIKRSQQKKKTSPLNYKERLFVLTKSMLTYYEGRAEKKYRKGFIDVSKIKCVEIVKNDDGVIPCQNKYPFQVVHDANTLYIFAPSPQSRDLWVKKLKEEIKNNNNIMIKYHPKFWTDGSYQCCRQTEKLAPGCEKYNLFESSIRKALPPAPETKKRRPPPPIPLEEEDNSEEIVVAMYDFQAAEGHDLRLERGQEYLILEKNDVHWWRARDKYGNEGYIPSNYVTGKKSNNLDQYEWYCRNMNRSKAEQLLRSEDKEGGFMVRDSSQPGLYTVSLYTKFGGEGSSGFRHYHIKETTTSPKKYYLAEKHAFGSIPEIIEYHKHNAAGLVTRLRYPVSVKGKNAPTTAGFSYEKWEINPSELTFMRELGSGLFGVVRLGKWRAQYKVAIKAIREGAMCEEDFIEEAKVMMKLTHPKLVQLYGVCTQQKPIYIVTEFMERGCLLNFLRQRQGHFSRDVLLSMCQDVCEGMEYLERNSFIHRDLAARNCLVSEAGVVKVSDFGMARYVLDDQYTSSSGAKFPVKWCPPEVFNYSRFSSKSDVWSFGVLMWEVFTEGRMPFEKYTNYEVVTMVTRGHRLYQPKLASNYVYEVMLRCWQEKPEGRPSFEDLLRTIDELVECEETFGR

[8] = Oral bioavailability in Wistar Han rat at 5 mg/kg; type: ADME, organism-based; conditions: Wistar Han, in vivo
[9] = target: Tyrosine-protein kinase FRK (Homo sapiens, UniProt P42685); assay: Inhibition of FRK (unknown origin)
Chain of Tyrosine-protein kinase FRK (P42685 whole entry): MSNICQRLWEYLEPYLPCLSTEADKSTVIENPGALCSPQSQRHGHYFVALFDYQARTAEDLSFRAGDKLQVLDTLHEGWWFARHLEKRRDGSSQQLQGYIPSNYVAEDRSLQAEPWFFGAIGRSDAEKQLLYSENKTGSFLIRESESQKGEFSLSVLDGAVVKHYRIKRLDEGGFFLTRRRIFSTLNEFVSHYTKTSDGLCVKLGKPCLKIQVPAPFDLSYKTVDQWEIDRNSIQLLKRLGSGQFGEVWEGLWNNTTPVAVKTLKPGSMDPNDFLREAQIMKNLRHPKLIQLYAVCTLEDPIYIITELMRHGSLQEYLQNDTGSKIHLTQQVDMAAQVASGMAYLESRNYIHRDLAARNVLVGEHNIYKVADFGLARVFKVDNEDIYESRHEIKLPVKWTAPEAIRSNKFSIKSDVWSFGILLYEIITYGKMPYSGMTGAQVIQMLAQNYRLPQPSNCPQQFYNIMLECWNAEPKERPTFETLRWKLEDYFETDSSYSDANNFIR

[10] = Tmax in Wistar Han rat at 5 mg/kg, po; type: ADME, organism-based; conditions: in vivo
[11] = AUC in Wistar Han rat at 2 mg/kg, iv; type: ADME, organism-based; set-up: dose 2 mg/kg; conditions: in vivo
[12] = target: T3, Tyrosine-protein kinase TXK (Homo sapiens, UniProt P42681); assay: Inhibition of TXK (unknown origin)
T3 sequence (P42681 whole entry): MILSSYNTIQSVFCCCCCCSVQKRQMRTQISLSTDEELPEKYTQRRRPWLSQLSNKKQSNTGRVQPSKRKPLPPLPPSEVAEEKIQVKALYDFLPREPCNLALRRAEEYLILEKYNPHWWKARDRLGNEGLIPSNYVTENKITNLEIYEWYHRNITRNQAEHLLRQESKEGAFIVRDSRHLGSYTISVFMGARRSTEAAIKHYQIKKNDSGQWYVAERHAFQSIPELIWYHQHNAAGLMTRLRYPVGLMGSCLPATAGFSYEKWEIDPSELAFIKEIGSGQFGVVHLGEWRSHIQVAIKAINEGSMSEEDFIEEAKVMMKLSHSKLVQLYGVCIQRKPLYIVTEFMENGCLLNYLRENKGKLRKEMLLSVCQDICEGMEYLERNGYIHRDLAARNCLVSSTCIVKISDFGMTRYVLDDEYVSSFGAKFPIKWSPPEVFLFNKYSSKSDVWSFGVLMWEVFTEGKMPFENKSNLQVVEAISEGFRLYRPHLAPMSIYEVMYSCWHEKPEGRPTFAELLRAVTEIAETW

[13] = target: Receptor tyrosine-protein kinase erbB-4 (Homo sapiens, UniProt Q15303); assay: Inhibition of ERBB4 (unknown origin)
Chain of Receptor tyrosine-protein kinase erbB-4 (Q15303 whole entry): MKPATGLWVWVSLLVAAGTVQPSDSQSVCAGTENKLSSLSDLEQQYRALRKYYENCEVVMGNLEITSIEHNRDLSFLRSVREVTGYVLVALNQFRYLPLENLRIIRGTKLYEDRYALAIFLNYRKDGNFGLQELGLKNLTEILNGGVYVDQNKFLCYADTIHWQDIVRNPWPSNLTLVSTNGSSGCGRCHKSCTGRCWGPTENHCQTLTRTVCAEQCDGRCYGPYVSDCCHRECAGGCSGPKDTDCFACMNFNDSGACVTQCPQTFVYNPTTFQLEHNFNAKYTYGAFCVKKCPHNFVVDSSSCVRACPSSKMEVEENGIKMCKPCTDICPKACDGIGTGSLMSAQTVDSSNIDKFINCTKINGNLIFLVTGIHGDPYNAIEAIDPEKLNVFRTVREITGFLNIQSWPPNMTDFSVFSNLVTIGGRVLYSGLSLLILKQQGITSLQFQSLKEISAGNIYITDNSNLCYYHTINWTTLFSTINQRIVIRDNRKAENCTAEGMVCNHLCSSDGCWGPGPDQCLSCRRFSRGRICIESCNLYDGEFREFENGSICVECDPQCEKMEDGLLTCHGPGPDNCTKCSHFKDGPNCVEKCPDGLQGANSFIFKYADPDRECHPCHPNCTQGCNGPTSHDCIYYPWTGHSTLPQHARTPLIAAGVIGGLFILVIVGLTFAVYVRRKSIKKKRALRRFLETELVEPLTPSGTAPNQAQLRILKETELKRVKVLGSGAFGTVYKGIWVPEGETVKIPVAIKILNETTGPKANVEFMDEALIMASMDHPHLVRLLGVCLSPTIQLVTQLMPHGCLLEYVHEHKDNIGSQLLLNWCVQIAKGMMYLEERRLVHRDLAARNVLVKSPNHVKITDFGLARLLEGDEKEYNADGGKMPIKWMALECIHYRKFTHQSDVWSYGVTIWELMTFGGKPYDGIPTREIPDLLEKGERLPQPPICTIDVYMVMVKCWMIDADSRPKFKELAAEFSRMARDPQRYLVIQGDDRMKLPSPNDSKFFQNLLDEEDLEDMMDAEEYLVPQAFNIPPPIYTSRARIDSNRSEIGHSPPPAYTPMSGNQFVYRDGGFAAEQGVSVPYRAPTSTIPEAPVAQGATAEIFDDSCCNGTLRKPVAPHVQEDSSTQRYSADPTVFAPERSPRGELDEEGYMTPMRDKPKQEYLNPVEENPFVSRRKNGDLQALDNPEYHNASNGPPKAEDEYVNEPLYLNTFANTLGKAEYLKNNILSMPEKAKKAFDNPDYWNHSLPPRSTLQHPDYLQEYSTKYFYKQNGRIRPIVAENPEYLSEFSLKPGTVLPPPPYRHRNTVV

[14] = target: Tyrosine-protein kinase Blk (Homo sapiens, UniProt P51451); assay: Inhibition of BLK (unknown origin)
Chain of Tyrosine-protein kinase Blk (P51451 whole entry): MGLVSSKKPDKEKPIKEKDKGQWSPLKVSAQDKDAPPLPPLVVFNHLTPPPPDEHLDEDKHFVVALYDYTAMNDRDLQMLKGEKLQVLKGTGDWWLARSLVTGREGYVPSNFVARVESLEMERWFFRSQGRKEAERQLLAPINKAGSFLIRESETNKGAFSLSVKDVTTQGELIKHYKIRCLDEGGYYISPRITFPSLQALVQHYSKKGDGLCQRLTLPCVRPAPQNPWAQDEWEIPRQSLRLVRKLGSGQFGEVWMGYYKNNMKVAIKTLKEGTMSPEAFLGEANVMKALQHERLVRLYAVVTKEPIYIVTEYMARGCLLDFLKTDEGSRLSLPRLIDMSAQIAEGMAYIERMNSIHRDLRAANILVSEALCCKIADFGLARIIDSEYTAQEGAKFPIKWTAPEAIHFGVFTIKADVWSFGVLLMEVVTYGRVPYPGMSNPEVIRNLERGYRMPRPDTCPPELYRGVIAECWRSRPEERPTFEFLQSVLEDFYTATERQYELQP

[15] = Clearance in Wistar Han rat at 2 mg/kg, iv; type: ADME, organism-based; conditions: in vivo
[16] = target: Tyrosine-protein kinase Fyn (Homo sapiens, UniProt P06241); assay: Inhibition of FYN (unknown origin)
[17] = Oral bioavailability in Beagle dog at 2 mg/kg; type: ADME, organism-based, Canis lupus familiaris; conditions: in vivo
[18] = target: Tyrosine-protein kinase CSK (Homo sapiens, UniProt P41240); assay: Inhibition of CSK (unknown origin)
[19] = target: Tyrosine-protein kinase Lyn (Homo sapiens, UniProt P07948); assay: Inhibition of LYNB (unknown origin)
[20] = Clearance in Beagle dog at 1 mg/kg, iv; type: ADME, organism-based, Canis lupus familiaris; conditions: in vivo
[21] = target: T4, Cytoplasmic tyrosine-protein kinase BMX (Homo sapiens, UniProt P51813); assay: Inhibition of BMX (unknown origin)
T4 sequence (P51813 whole entry): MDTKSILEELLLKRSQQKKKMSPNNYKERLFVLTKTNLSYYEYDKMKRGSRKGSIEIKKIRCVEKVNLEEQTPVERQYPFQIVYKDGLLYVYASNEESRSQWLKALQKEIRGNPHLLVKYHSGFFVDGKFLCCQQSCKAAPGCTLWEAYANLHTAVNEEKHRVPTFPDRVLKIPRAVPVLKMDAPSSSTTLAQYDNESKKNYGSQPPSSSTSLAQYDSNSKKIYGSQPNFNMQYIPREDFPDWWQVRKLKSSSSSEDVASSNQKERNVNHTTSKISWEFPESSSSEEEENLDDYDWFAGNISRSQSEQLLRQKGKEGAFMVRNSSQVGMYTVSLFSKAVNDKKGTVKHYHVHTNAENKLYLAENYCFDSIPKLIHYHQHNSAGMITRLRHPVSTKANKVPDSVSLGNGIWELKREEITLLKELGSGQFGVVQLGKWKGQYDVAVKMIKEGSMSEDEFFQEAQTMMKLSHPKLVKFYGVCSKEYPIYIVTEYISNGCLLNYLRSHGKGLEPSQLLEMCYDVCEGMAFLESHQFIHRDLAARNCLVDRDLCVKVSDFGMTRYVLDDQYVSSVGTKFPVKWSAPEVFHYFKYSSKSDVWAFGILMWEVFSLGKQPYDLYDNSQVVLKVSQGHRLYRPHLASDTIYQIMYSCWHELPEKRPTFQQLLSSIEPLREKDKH

[22] = Cmax in Wistar Han rat at 5 mg/kg, po; type: ADME, organism-based; set-up: route oral, dose 5 mg/kg; conditions: in vivo
Rattus norvegicus = assay: Antiarthritic activity in Lewis rat model of collagen-induced arthritis assessed as decrease in paw thickness at 15 to 120 mg/kg, po qd and measured for 30 days; type: functional, organism-based; conditions: dose mg/kg 15-120, time 30.0 day
[23] = target: Tyrosine-protein kinase Lck (Homo sapiens, UniProt P06239); assay: Inhibition of LCK (unknown origin)
[24] = target: Protein-tyrosine kinase 6 (Homo sapiens, UniProt Q13882); assay: Inhibition of PTK6 (unknown origin)
Chain of Protein-tyrosine kinase 6 (Q13882 whole entry): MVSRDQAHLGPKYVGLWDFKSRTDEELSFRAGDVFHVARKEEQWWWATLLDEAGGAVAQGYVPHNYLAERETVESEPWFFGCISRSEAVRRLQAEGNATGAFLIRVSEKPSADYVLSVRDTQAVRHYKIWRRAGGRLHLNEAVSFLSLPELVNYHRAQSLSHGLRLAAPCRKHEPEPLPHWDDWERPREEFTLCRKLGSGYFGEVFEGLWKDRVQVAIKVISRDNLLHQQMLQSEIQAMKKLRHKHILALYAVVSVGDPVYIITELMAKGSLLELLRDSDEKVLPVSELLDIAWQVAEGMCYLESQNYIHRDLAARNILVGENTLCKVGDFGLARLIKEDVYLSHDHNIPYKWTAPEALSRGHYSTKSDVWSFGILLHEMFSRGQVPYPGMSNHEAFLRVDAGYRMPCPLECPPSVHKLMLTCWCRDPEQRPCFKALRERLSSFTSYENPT

[25] = Half life in Wistar Han rat at 2 mg/kg, iv; type: ADME, organism-based; conditions: in vivo
[26] = Tmax in Beagle dog at 2 mg/kg, po; type: ADME, organism-based, Canis lupus familiaris; conditions: in vivo
[27] = target: Proto-oncogene tyrosine-protein kinase Src (Homo sapiens, UniProt P12931); assay: Inhibition of SRC (unknown origin)
Chain of Proto-oncogene tyrosine-protein kinase Src (P12931 2-536 limits assumed): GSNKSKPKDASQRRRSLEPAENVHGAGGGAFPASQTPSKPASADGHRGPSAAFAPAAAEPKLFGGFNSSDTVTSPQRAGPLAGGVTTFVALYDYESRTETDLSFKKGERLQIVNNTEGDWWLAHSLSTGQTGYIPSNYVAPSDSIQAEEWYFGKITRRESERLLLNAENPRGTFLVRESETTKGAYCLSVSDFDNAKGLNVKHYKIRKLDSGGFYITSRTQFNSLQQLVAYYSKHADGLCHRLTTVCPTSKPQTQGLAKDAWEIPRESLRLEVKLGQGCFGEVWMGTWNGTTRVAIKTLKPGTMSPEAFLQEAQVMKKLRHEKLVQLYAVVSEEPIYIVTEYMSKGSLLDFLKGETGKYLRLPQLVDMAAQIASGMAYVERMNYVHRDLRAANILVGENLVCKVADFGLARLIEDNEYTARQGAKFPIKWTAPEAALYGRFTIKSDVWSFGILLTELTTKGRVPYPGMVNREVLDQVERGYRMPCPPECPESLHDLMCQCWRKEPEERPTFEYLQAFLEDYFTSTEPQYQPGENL

[28] = target: Tyrosine-protein kinase Srms (Homo sapiens, UniProt Q9H3Y6); assay: Inhibition of SRMS (unknown origin)
Chain of Tyrosine-protein kinase Srms (Q9H3Y6 whole entry): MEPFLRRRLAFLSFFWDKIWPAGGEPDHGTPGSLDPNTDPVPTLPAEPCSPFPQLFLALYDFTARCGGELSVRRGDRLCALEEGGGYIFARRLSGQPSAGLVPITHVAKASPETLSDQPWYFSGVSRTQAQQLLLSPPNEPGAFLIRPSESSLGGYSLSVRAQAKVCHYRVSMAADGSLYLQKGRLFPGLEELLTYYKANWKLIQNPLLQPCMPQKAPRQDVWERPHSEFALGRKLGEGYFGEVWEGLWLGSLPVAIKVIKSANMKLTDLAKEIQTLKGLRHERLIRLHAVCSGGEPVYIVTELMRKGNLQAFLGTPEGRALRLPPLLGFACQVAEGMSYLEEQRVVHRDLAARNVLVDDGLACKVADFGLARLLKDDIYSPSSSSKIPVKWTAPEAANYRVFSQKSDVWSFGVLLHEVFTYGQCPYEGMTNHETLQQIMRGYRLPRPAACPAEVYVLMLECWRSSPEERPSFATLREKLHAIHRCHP

[29] = Cmax in Beagle dog at 2 mg/kg, po; type: ADME, organism-based, Canis lupus familiaris; set-up: route oral, dose 2 mg/kg; conditions: in vivo
[30] = target: Tyrosine-protein kinase Fgr (Homo sapiens, UniProt P09769); assay: Inhibition of FGR (unknown origin)
Chain of Tyrosine-protein kinase Fgr (P09769 whole entry): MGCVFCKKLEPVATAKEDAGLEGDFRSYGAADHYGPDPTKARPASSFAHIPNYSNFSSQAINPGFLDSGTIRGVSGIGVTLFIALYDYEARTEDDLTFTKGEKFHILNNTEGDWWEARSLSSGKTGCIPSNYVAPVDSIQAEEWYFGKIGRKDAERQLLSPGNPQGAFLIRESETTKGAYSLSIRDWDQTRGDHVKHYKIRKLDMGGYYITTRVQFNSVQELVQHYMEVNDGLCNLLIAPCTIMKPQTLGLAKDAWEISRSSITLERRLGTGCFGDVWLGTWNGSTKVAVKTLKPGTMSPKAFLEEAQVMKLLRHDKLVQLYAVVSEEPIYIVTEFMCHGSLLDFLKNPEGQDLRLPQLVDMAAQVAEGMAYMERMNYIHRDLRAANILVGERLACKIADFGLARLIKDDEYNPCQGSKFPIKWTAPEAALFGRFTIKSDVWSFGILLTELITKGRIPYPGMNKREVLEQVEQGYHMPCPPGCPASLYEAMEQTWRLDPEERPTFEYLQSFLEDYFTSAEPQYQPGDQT

[31] = target: Tyrosine-protein kinase Yes (Homo sapiens, UniProt P07947); assay: Inhibition of YES1 (unknown origin)
[32] = target: T1, Tyrosine-protein kinase BTK; assay: Inhibition of recombinant full length BTK (unknown origin) expressed in baculovirus infected Sf9 cells using Biotin-EQEDEPEGDYFEWLE-NH2 peptide as substrate incubated for 60 mins followed by further incubation with substrate and ATP for 120 mins by TR-FRET assay

IC50 [1]: 263 nM | IC50 [2]: 7.2 nM
SMILES: Nc1nccn2c([C@H]3CN4C(=O)CC[C@@H]4CO3)nc(-c3ccc(C(=O)Nc4cc(C(F)(F)F)ccn4)cc3)c12

half-life [3]: 3.4 h | Vd [4]: 4 L/kg | Vd [5]: 3 L/kg | AUC [6]: 1.6 µM·h | IC50 [7]: 67 nM | bioavailability [8]: 9.5% | IC50 [9]: 154 nM | Tmax [10]: 2.1 h | AUC [11]: 1.1 µM·h | IC50 [12]: 102 nM | IC50 [13]: 160 nM | IC50 [14]: 101 nM | clearance [15]: 53 mL/min/kg | IC50 [16]: 1230 nM | bioavailability [17]: 108% | IC50 [18]: 227 nM | IC50 [19]: 162 nM | clearance [20]: 20 mL/min/kg | IC50 [21]: 19 nM | Cmax [22]: 50 nM | IC50 [23]: 26 nM | IC50 [24]: 84 nM | half-life [25]: 3 h | Tmax [26]: 1.5 h | IC50 [27]: 71 nM | IC50 [28]: 16 nM | Cmax [29]: 1100 nM | IC50 [30]: 64 nM | IC50 [31]: 54 nM
SMILES: COc1cc(C(=O)Nc2cc(C(F)(F)F)ccn2)ccc1-c1nc([C@@H]2CC[C@H]3CCC(=O)N3C2)n2ccnc(N)c12
Activity (Rattus norvegicus): Dose-dependent effect

IC50 [2]: 310 nM | IC50 [32]: 11 nM
SMILES: Nc1nccn2c([C@@H]3CC[C@H]4CCC(=O)N4C3)nc(-c3ccc(C(=O)Nc4cc(C(F)(F)F)ccn4)cc3Oc3ccccc3)c12

IC50 [1]: 92 nM | IC50 [2]: 10 nM
SMILES: CCOc1cc(C(=O)Nc2cc(C(F)(F)F)ccn2)ccc1-c1nc([C@@H]2CC[C@H]3CCC(=O)N3C2)n2ccnc(N)c12

AUC [6]: 20 µM·h | AUC [11]: 3.1 µM·h
SMILES: C[C@H]1CC[C@@H](c2nc(-c3ccc(C(=O)Nc4cc(C(F)(F)F)ccn4)cc3F)c3c(N)nccn23)CN1C(=O)C1CC1

IC50 [2]: 41 nM
SMILES: CC(C)Oc1cc(C(=O)Nc2cc(C(F)(F)F)ccn2)ccc1-c1nc([C@@H]2CC[C@H]3CCC(=O)N3C2)n2ccnc(N)c12

IC50 [2]: 403 nM
SMILES: CN1C[C@@H]2CC[C@@H](c3nc(-c4ccc(C(=O)Nc5cc(C(F)(F)F)ccn5)cc4)c4c(N)nccn34)CN2C1=O

IC50 [1]: 104 nM | IC50 [2]: 16 nM | IC50 [32]: 0.26 nM
SMILES: CN1CC(=O)N2C[C@H](c3nc(-c4ccc(C(=O)Nc5cc(C(F)(F)F)ccn5)cc4F)c4c(N)nccn34)CC[C@H]2C1

IC50 [1]: 204 nM | IC50 [2]: 39 nM
SMILES: Nc1nccn2c([C@@H]3CC[C@H]4CCCN4C3)nc(-c3ccc(C(=O)Nc4cc(C(F)(F)F)ccn4)cc3)c12

IC50 [1]: 78 nM | IC50 [2]: 5.8 nM | IC50 [32]: 0.1 nM
SMILES: Nc1nccn2c([C@@H]3CC[C@H]4COCC(=O)N4C3)nc(-c3ccc(C(=O)Nc4cc(C(F)(F)F)ccn4)cc3F)c12

IC50 [1]: 415 nM | IC50 [2]: 20 nM
SMILES: Nc1nccn2c([C@@H]3CC[C@H]4CCC(=O)N4C3)nc(-c3ccc(C(=O)Nc4cc(C(F)(F)F)ccn4)cc3OC(F)F)c12
